This note sets out measurements from patent US9206173B2, “Heterocyclic compounds for the treatment of stress-related conditions” (OTSUKA PHARMACEUTICAL CO., LTD., priority 2009, dated 2015).

Each structure is given as a SMILES string. pKi: −log10 of the molar value. Where a name gives a salt, the structure may show the parent alone.

Chain of human GPR10 (P49683 whole entry): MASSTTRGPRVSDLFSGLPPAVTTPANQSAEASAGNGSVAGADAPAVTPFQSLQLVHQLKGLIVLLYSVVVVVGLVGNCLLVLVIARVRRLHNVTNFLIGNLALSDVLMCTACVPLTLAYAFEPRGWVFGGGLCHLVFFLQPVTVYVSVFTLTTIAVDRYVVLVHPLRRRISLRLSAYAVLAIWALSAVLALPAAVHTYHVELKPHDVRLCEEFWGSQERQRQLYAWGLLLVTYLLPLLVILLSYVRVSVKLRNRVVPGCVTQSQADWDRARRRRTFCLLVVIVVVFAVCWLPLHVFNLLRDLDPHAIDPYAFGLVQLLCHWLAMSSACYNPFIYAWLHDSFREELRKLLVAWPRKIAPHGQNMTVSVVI

This assay addresses human GPR10 (Homo sapiens (Human), UniProt P49683). Kind of assay: Inhibitory activity on binding of [3H]-PrRP to GPR10 (HEK 293 cell membrane fraction). To be noted: [3H]-PrRP 1 nM, human GPR10-expressing HEK 293 cell membrane fraction; Ki from IC50 by Cheng-Prussoff formula. On the procedure: Inhibitory Activity on Binding of [^3H]-PrRP to GPR10
Human GPR10 receptor expressing human embryonic kidney cells, HEK 293 cells, were cultured in Dulbecco's Modified Eagle's medium supplemented with 10% fetal bovine serum and 1% penicilline-streptmycin at 37° C., in 5% carbon dioxide gas conditions. The medium was removed and the cells were recovered in a phosphate buffer to prepare a cell suspension. The cell suspension was homogenated on ice by an ultrasonic cell homogenizer (Microson™ type XL200) and centrifuged at 40,000 g for 10 minutes at 4° C. After the supernatant was discarded, Buffer A (20 mM HEPES, 10 mM EDTA, 1 μl/ml protease inhibiting cocktail, pH 7.4) was added to the pellet. The pellet was suspended by the ultrasonic cell homogenizer, then the suspension was centrifuged at 40,000 g, for 10 minutes at 4° C. After this operation was repeated once again, the supernatant was discarded, Buffer B (20 mM HEPES, 0.1 mM EDTA, pH 7.4) was added to the pellet, and the pellet was suspended by the ultrasonic homogenizer. This was stored at a freezer of −80° C. as a cell membrane fraction until use in a binding test.
To each well of a 96-well plate, 150 μl of assay buffer (20 mM HEPES, 10 mM EDTA, 1 μl/ml protease inhibiting agent cocktail, pH 7.4), 20 μl of cell membrane fraction, 10 μl of test compound and [^3H]-PrRP (final concentration 1 nM) were added and incubated at room temperature for 90 minutes. After completion of the reaction, using a cell harvester, the cell-membrane fraction sample product was filtered under aspiration by a glass fiber filter plate (Unifilter; GF/B) previously treated with 0.5% polyethylene imine. The filter was washed with a 50 mM Tris hydrochloric acid buffer (pH 7.4) three times. After the filter was dried in a dryer (50° C.) for about 3 hours, 40 μl of liquid scintillation cocktail (MicroScint-O) was added to each well and radio activity was measured by a scintillation counter (Packard Topcount). The radio activity in the presence of an excessive amount of non-labeled PrRP (final concentration: 100 nM) was regarded as non-specific binding.
The binding inhibition rate was calculated based on calculating formula: 100−(radio activity when a compound is added−radio activity of non-specific binding)÷(radio activity when a solvent is added−radio activity of non-specific binding)×100.
An IC50 value was calculated based on the concentration dependent reaction using a non-linear analysis program and a Ki value was calculated using Cheng-Prussoff formula.
Take `COn1c(N[C@@H](C)c2ccc(C(F)(F)F)cc2)nc2c(c1=O)CN(C(=O)c1cc3cccnc3s1)CC2` [Example 2415, 3-methoxy-6-(thieno[2,3-b]pyridine-2-carbonyl)-2-[(S)-1-(4-trifluoromethylphenyl)ethylamino]-5,6,7,8-tetrahydro-3H-pyrido[4,3-d]pyrimidin-4-one]: the pKi (as a rule, the negative decadic logarithm of the Ki, by convention in mol/L) was 8.05.

Regarding `CC(C)COn1c(N[C@@H](C)c2ccc(C(F)(F)F)cc2)nc2c(c1=O)CN(C(=O)c1ccc(C#N)cc1F)CC2` [Example 2416, 3-fluoro-4-{3-isobutoxy-4-oxo-2-[(S)-1-(4-trifluoromethylphenyl)ethylamino]-3,5,7,8-tetrahydro-4H-pyrido[4,3-d]pyrimidine-6-carbonyl}benzonitrile], the pKi is 7.48.

Compound `C#CCCn1c(N[C@@H](C)c2ccc(C(F)(F)F)cc2)nc2c(c1=O)CN(C(=O)c1ccc(-n3ccnc3)cc1)CC2` [Example 2434, 3-(3-butynyl)-6-(4-imidazol-1-ylbenzoyl)-2-[(S)-1-(4-trifluoromethylphenyl)ethylamino]-5,6,7,8-tetrahydro-3H-pyrido[4,3-d]pyrimidin-4-one] showed a pKi of 8.05. Against the preceding compound, the pKi is 0.57 log units higher.

Compound `C#CCCn1c(N[C@@H](C)c2ccc(C(F)(F)F)cc2)nc2c(c1=O)CN(C(=O)c1ccc(-c3cnco3)cc1)CC2` [Example 2438, 3-(3-butynyl)-6-(4-oxazol-5-ylbenzoyl)-2-[(S)-1-(4-trifluoromethylphenyl)ethylamino]-5,6,7,8-tetrahydro-3H-pyrido[4,3-d]pyrimidin-4-one] gave a pKi of 7.59. This pKi is 0.46 log units lower than that of the compound before.

Take `C[C@H](Nc1nc2c(c(=O)n1N(C)C)CN(C(=O)COc1ccc(Cl)cc1)CC2)c1ccc(C(F)(F)F)cc1` [Example 2442, 6-[2-(4-chlorophenoxy)acetyl]-3-dimethylamino-2-[(S)-1-(4-trifluoromethylphenyl)ethylamino]-5,6,7,8-tetrahydro-3H-pyrido[4,3-d]pyrimidin-4-one hydrochloride]: the pKi was 6.85.

With `C#CCCn1c(N[C@@H](C)c2ccc(C(F)(F)F)cc2)nc2c(c1=O)CN(C(=O)c1ccc(C)cc1)CC2` [Example 2443, 3-(3-butynyl)-6-(4-methylbenzoyl)-2-[(S)-1-(4-trifluoromethylphenyl)ethylamino]-5,6,7,8-tetrahydro-3H-pyrido[4,3-d]pyrimidin-4-one], the pKi was 7.39.

The compound `CC#CCn1c(N[C@@H](C)c2ccc(C(F)(F)F)cc2)nc2c(c1=O)CN(C(=O)c1ccc3c(c1)OCO3)CC2` [Example 2444, 6-(benzo[1,3]dioxole-5-carbonyl)-3-(2-butynyl)-2-[(S)-1-(4-trifluoromethylphenyl)ethylamino]-5,6,7,8-tetrahydro-3H-pyrido[4,3-d]pyrimidin-4-one] gave a pKi of 7.38.

On to `CC#CCn1c(N[C@@H](C)c2ccc(C(F)(F)F)cc2)nc2c(c1=O)CN(C(=O)c1ccc(C)c(C)c1)CC2` [Example 2447, 3-(2-butynyl)-6-(3,4-dimethylbenzoyl)-2-[(S)-1-(4-trifluoromethylphenyl)ethylamino]-5,6,7,8-tetrahydro-3H-pyrido[4,3-d]pyrimidin-4-one], for which the pKi was 7.39.

In turn, `CC#CCn1c(N[C@@H](C)c2ccc(C(F)(F)F)cc2)nc2c(c1=O)CN(C(=O)c1ccc(OC)cc1)CC2` [Example 2448, 3-(2-butynyl)-6-(4-methoxybenzoyl)-2-[(S)-1-(4-trifluoromethylphenyl)ethylamino]-5,6,7,8-tetrahydro-3H-pyrido[4,3-d]pyrimidin-4-one] had a pKi of 7.64.

Regarding `COn1c(NC(CCC(F)(F)F)c2ccc(Cl)cc2)nc2c(c1=O)CN(C(=O)c1ccc(Cl)cc1)CC2` (stereo not shown) [Example 2450, 6-(4-chlorobenzoyl)-2-[1-(4-chlorophenyl)-4,4,4-trifluorobutylamino]-3-methoxy-5,6,7,8-tetrahydro-3H-pyrido[4,3-d]pyrimidin-4-one], the pKi is 6.92.

Compound `COn1c(N[C@@H](C)c2ccc(C(F)(F)F)cc2)nc2c(c1=O)CN(C(=O)c1ccc(Cl)o1)CC2` [Example 2454, 6-(5-chloro-furan-2-carbonyl)-3-methoxy-2-[(S)-1-(4-trifluoromethylphenyl)ethylamino]-5,6,7,8-tetrahydro-3H-pyrido[4,3-d]pyrimidin-4-one] had a pKi of 7.32. Against the preceding compound, the pKi is 0.40 log units higher.

Consider `C=Cc1ccc(C(=O)N2CCc3nc(N[C@@H](C)c4ccc(C(F)(F)F)cc4)n(OC)c(=O)c3C2)cc1` [Example 2456, 3-methoxy-2-[(S)-1-(4-trifluoromethylphenyl)ethylamino]-6-(4-vinylbenzoyl)-5,6,7,8-tetrahydro-3H-pyrido[4,3-d]pyrimidin-4-one], for which the pKi was 8.22.

The compound `COn1c(N[C@@H](C)c2ccc(C(F)(F)F)cc2)nc2c(c1=O)CN(C(=O)c1ccc(C)c(F)c1)CC2` [Example 2457, 6-(3-fluoro-4-methylbenzoyl)-3-methoxy-2-[(S)-1-(4-trifluoromethylphenyl)ethylamino]-5,6,7,8-tetrahydro-3H-pyrido[4,3-d]pyrimidin-4-one] had a pKi of 8.10.

Regarding `C#CCCn1c(N[C@@H](C)c2ccc(C(F)(F)F)cc2)nc2c(c1=O)CN(C(=O)c1nc3ccccc3[nH]1)CC2` [Example 2458, 6-(1H-benzoimidazole-2-carbonyl)-3-(3-butynyl)-2-[(S)-1-(4-trifluoromethylphenyl)ethylamino]-5,6,7,8-tetrahydro-3H-pyrido[4,3-d]pyrimidin-4-one], the pKi is 6.61. This pKi is 1.49 log units lower than that of the compound before.

As for `COn1c(N[C@@H](C)c2ccc(C(F)(F)F)cc2)nc2c(c1=O)CN(C(=O)c1ccc3c(c1)OCCO3)CC2` [Example 2459, 6-(2,3-dihydrobenzo[1,4]dioxine-6-carbonyl)-3-methoxy-2-[(S)-1-(4-trifluoromethylphenyl)ethylamino]-5,6,7,8-tetrahydro-3H-pyrido[4,3-d]pyrimidin-4-one], the negative logarithm of the Ki (pKi) is 8.00.

Consider `COc1ccc2oc(C(=O)N3CCc4nc(N[C@@H](C)c5ccc(C(F)(F)F)cc5)n(OC)c(=O)c4C3)cc2c1` [Example 2460, 3-methoxy-6-(5-methoxybenzofuran-2-carbonyl)-2-[(S)-1-(4-trifluoromethylphenyl)ethylamino]-5,6,7,8-tetrahydro-3H-pyrido[4,3-d]pyrimidin-4-one], for which the pKi is 7.85.

In turn, `COn1c(NCc2ccc(Cl)cc2)nc2c(c1=O)CN(C(=O)c1ccc(Cl)cc1)CC2` [Example 2462, 6-(4-chlorobenzoyl)-2-(4-chlorobenzylamino)-3-methoxy-5,6,7,8-tetrahydro-3H-pyrido[4,3-d]pyrimidin-4-one hydrochloride] showed a pKi of 7.01. Compared with the last compound, the pKi is 0.84 log units lower.

Compound `COn1c(N[C@@H](C)c2ccc(C(F)(F)F)cc2)nc2c(c1=O)CN(C(=O)c1cc(-c3cccs3)n(C)n1)CC2` [Example 2464, 3-methoxy-6-(1-methyl-5-thiophen-2-yl-1H-pyrazole-3-carbonyl)-2-[(S)-1-(4-trifluoromethylphenyl)ethylamino]-5,6,7,8-tetrahydro-3H-pyrido[4,3-d]pyrimidin-4-one] had a pKi of 7.70.

`COn1c(N[C@@H](C)c2ccc(C(F)(F)F)cc2)nc2c(c1=O)CN(C(=O)c1cc3occc3n1C)CC2` [Example 2465, 3-methoxy-6-(4-methyl-4H-furo[3,2-b]pyrrole-5-carbonyl)-2-[(S)-1-(4-trifluoromethylphenyl)ethylamino]-5,6,7,8-tetrahydro-3H-pyrido[4,3-d]pyrimidin-4-one] showed a pKi of 8.00.
